20 compounds from patent US11730720B2, “ALK5 inhibitors” (THERAVANCE BIOPHARMA R&D IP, LLC, priority 2018, dated 2023) can be followed below.

In test [1] the test system is TGF-β-stimulated SMAD3 phosphorylation in BEAS-2B cells. In words: Cellular ALK5 potency assay, inhibition of TGF-β stimulated pSMAD3 formation in BEAS-2B cells. The test is classed as cell-based. Conditions: Homo sapiens, inhibition of TGF-β (10 ng/mL) stimulated pSMAD3 formation, 1 hour compound incubation, read-out: BEAS2B pIC50 (converted). In outline:
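Phospho-SMAD3 was quantified by AlphaLISA in lysates of human lung epithelial BEAS-2B cells. Compound was added 1 h (37 °C, HEPES/BSA-supplemented HBSS) before a 30 min challenge with 10 ng/mL TGF-β. Values are pIC50 relative to stimulated cells without compound.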

In test [2] the target is T1, recombinant human ALK5 (TGF-βR1) protein (Homo sapiens, UniProt P36897).
T1 construct: purchased Life Technologies PR9075A
T1 sequence (P36897 34-503): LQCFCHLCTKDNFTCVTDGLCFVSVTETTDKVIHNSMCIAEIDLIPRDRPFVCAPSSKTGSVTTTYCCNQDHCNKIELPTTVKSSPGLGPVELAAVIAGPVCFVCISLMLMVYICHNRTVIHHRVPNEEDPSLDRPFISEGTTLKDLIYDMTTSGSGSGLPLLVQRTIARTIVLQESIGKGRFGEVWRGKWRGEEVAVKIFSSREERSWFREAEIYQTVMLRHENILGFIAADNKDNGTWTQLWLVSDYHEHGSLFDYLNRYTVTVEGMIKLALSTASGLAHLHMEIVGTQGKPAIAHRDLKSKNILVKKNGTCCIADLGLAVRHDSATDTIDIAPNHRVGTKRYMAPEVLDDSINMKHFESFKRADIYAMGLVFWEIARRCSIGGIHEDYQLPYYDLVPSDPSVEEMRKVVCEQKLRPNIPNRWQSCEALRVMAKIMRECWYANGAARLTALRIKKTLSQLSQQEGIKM
In words: Biochemical ALK5 (TGF-βR1) assay to measure pKi (LANCE Ultra ULight kinase assay). To be noted: apparent pKi, converted from pIC50 using the Cheng-Prusoff equation. The method in brief:
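TR-FRET kinase format: compound dose range 10 μM–25 pM equilibrated 60 min with human ALK5 and ULight-labelled topoisomerase 2α peptide in HEPES/MgCl2 buffer pH 7.5 with DTT. Reaction started with ATP (125 μM stock, 5× final), 60 min at 37° C, stopped with EDTA/Eu-anti-phospho antibody; pKi derived from pIC50 via Cheng-Prusoff.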
(In general: TR-FRET usually uses a lanthanide donor and a delayed reading to cut background.)

Take `Fc1ccc(Cl)cc1-c1n[nH]cc1-c1ccc2ncc(NCC3CCNCC3)cc2n1` [Compound 1-27, 6-[3-(5-chloro-2-fluoro-phenyl)-1H-pyrazol-4-yl]-N-(4-piperidylmethyl)-1,5-naphthyridin-3-amine]: in test [1], the IC50 is 25.1 to 158 nM. In addition, the Ki in test [2] is not above 0.0316 nM.
The like results for `Fc1ccc(Cl)cc1-c1n[nH]cc1-c1ccc2ncc(NCC3CNC3)cc2n1` [Compound 1-28, N-(azetidin-3-ylmethyl)-6-[3-(5-chloro-2-fluoro-phenyl)-1H-pyrazol-4-yl]-1,5-naphthyridin-3-amine] were, in that order, 25.1 to 158 nM and 0.0398 to 0.316 nM.
In the case of `CN1CCN(c2ccc(Nc3cnc4ccc(-c5c[nH]nc5-c5cc(Cl)ccc5F)nc4c3)nc2)CC1` [Compound 1-29, 6-(3-(5-chloro-2-fluorophenyl)-1H-pyrazol-4-yl)-N-(5-(4-methylpiperazin-1-yl)pyridin-2-yl)-1,5-naphthyridin-3-amine], the IC50 in test [1] is 25.1 to 158 nM. For the same compound, the Ki in test [2] is 0.0398 to 0.316 nM.
The like results for `CC(C)N1CCN(c2ccc(Nc3cnc4ccc(-c5c[nH]nc5-c5cc(Cl)ccc5F)nc4c3)nc2)CC1` [Compound 1-30, 6-(3-(5-chloro-2-fluorophenyl)-1H-pyrazol-4-yl)-N-(5-(4-isopropylpiperazin-1-yl)pyridin-2-yl)-1,5-naphthyridin-3-amine] were, in that order, 25.1 to 158 nM and 0.0398 to 0.316 nM.
`CN(C)C1CN(c2cnc3ccc(-c4c[nH]nc4-c4cc(Cl)ccc4F)nc3c2)C1` [Compound 1-31, 1-(6-(3-(5-chloro-2-fluorophenyl)-1H-pyrazol-4-yl)-1,5-naphthyridin-3-yl)-N,N-dimethylazetidin-3-amine]: the IC50 in test [1] was not above 20 nM. For the same compound, the Ki in test [2] is 0.0398 to 0.316 nM.
Turning to `NC(=O)C1(N2CCN(c3cnc4ccc(-c5c[nH]nc5-c5cc(Cl)ccc5F)nc4c3)CC2)CCCC1` [Compound 1-32, 1-[4-[6-[3-(5-chloro-2-fluoro-phenyl)-1H-pyrazol-4-yl]-1,5-naphthyridin-3-yl]piperazin-1-yl]cyclopentanecarboxamide], the IC50 in test [1] is 25.1 to 158 nM. In test [2], the Ki is 0.0398 to 0.316 nM.
The like results for `CN(C)C1(C)CN(c2cnc3ccc(-c4c[nH]nc4-c4cc(Cl)ccc4F)nc3c2)C1` [Compound 1-33, 1-[6-[3-(5-chloro-2-fluoro-phenyl)-1H-pyrazol-4-yl]-1,5-naphthyridin-3-yl]-N,N,3-trimethyl-azetidin-3-amine] were, in that order, 25.1 to 158 nM and 0.398 to 3.16 nM.
For `O=C(OCc1ccccc1)N1CCC2(CCN(c3cnc4ccc(-c5c[nH]nc5-c5cc(Cl)ccc5F)nc4c3)C2)C1` (stereo not shown) [Compound 1-35, benzyl 7-[6-[3-(5-chloro-2-fluoro-phenyl)-1H-pyrazol-4-yl]-1,5-naphthyridin-3-yl]-2,7-diazaspiro[4.4]nonane-2-carboxylate] the same measures were 200 to 1260 nM and 3.98 to 31.6 nM.
For `OCCN1CCN(c2cnc3ccc(-c4c[nH]nc4-c4cc(Cl)ccc4F)nc3c2)CC1` [Compound 1-36, 2-[4-[6-[3-(5-chloro-2-fluoro-phenyl)-1H-pyrazol-4-yl]-1,5-naphthyridin-3-yl]piperazin-1-yl]ethanol] the same measures were 25.1 to 158 nM and 0.0398 to 0.316 nM.
In the case of `CN1CCC(N(C)c2cnc3ccc(-c4c[nH]nc4-c4cc(Cl)ccc4F)nc3c2)CC1` [Compound 1-37, 6-[3-(5-chloro-2-fluoro-phenyl)-1H-pyrazol-4-yl]-N-methyl-N-(1-methyl-4-piperidyl)-1,5-naphthyridin-3-amine], in test [1], the IC50 was 25.1 to 158 nM. Besides, in test [2], the Ki is 0.0398 to 0.316 nM.
For the compound `CCN1CCC(N(C)c2cnc3ccc(-c4c[nH]nc4-c4cc(Cl)ccc4F)nc3c2)CC1` [Compound 1-38, 6-[3-(5-chloro-2-fluoro-phenyl)-1H-pyrazol-4-yl]-N-(1-ethyl-4-piperidyl)-N-methyl-1,5-naphthyridin-3-amine], the IC50 in test [1] was 25.1 to 158 nM. The Ki in test [2] is 0.398 to 3.16 nM.
Regarding `Fc1ccc(Cl)cc1-c1n[nH]cc1-c1ccc2ncc(N3CC(N4CCCCC4)C3)cc2n1` [Compound 1-40, 2-[3-(5-chloro-2-fluoro-phenyl)-1H-pyrazol-4-yl]-7-[3-(1-piperidyl)azetidin-1-yl]-1,5-naphthyridine], in test [1], the IC50 was 25.1 to 158 nM. Moreover, the Ki in test [2] is 0.0398 to 0.316 nM.
With `CN(CC1CNC1)c1cnc2ccc(-c3c[nH]nc3-c3cc(Cl)ccc3F)nc2c1` [Compound 1-41, N-(azetidin-3-ylmethyl)-6-[3-(5-chloro-2-fluoro-phenyl)-1H-pyrazol-4-yl]-N-methyl-1,5-naphthyridin-3-amine], the IC50 in test [1] is 25.1 to 158 nM. The Ki in test [2] is 0.0398 to 0.316 nM.
Take `CC(C)N1CCN(c2cnc3ccc(-c4c[nH]nc4-c4cc(Cl)ccc4F)nc3c2)CC1` [Compound 1-43, 2-[3-(5-chloro-2-fluoro-phenyl)-1H-pyrazol-4-yl]-7-(4-isopropylpiperazin-1-yl)-1,5-naphthyridine]: the IC50 in test [1] was 25.1 to 158 nM. Also, in test [2], the Ki was 0.0398 to 0.316 nM.
Turning to `Fc1ccc(Cl)cc1-c1n[nH]cc1-c1ccc2ncc(N3CCC(N4CCCC4)CC3)cc2n1` [Compound 1-44, 2-[3-(5-chloro-2-fluoro-phenyl)-1H-pyrazol-4-yl]-7-(4-pyrrolidin-1-yl-1-piperidyl)-1,5-naphthyridine], in test [1], the IC50 is 25.1 to 158 nM. The Ki in test [2] was 0.0398 to 0.316 nM.
With `CN(C)C1CCN(c2cnc3ccc(-c4c[nH]nc4-c4cc(Cl)ccc4F)nc3c2)CC1` [Compound 1-45, 1-[6-[3-(5-chloro-2-fluoro-phenyl)-1H-pyrazol-4-yl]-1,5-naphthyridin-3-yl]-N,N-dimethyl-piperidin-4-amine], the IC50 in test [1] was not above 20 nM. For the same compound, in test [2], the Ki is 0.0398 to 0.316 nM.
As for `Fc1ccc(Cl)cc1-c1n[nH]cc1-c1ccc2ncc(N3CCn4nc(N5CCN(Cc6ccccc6)CC5)nc4C3)cc2n1` [Compound 1-46, 7-[2-(4-benzylpiperazin-1-yl)-6,8-dihydro-5H-[1,2,4]triazolo[1,5-a]pyrazin-7-yl]-2-[3-(5-chloro-2-fluoro-phenyl)-1H-pyrazol-4-yl]-1,5-naphthyridine], in test [1], the IC50 is 25.1 to 158 nM. Also, the Ki in test [2] was 0.0398 to 0.316 nM.
As for `Fc1ccc(Cl)cc1-c1n[nH]cc1-c1ccc2ncc(N3CCn4nc(N5CCN(Cc6ccccc6)CC5)cc4C3)cc2n1` [Compound 1-47, 7-[2-(4-benzylpiperazin-1-yl)-6,7-dihydro-4H-pyrazolo[1,5-a]pyrazin-5-yl]-2-[3-(5-chloro-2-fluoro-phenyl)-1H-pyrazol-4-yl]-1,5-naphthyridine], the IC50 in test [1] was 25.1 to 158 nM. For the same compound, the Ki in test [2] is 0.0398 to 0.316 nM.
As to `Fc1ccc(Cl)cc1-c1n[nH]cc1-c1ccc2ncc(N3CCn4nc(Br)nc4C3)cc2n1` [Compound 1-48, 7-(2-bromo-6,8-dihydro-5H-[1,2,4]triazolo[1,5-a]pyrazin-7-yl)-2-[3-(5-chloro-2-fluoro-phenyl)-1H-pyrazol-4-yl]-1,5-naphthyridine], the IC50 in test [1] is not above 20 nM. In test [2], the Ki was 0.398 to 3.16 nM.
For `CNC1CN(c2cnc3ccc(-c4c[nH]nc4-c4cc(Cl)ccc4F)nc3c2)C1` [Compound 1-49, 1-(6-(3-(5-chloro-2-fluorophenyl)-1H-pyrazol-4-yl)-1,5-naphthyridin-3-yl)-N-methylazetidin-3-amine] the same measures were not above 20 nM and 0.0398 to 0.316 nM.
